Data from patent publication US20240123078A1, “COMPOUNDS AND METHODS FOR MODULATING IMMUNE-RELATED PROTEINS” (Vividion Therapeutics, Inc., priority 2019, published 2024).

Assays:
[1] = target: T1, PFKFB3 6-phosphofructo-2-kinase/fructose-2,6-bisphosphatase 3 C155 (Q16875) (Homo sapiens, UniProt Q16875); test: Cysteine reactivity ABPP; assay type: binding
T1 construct: endogenous in cells; host or cells: primary human T cells
Protocol: (§1) Activated or expanded primary human T cells were re-suspended in RPMI (1×10^6 cells/mL) containing 10% fetal bovine serum (FBS), penicillin (100 U/mL), streptomycin ([…]), and L-glutamine (2 mM). The cells were treated with DMSO or compounds for 3 h, pelleted (524 g, 5 min), washed with PBS, and lysed by sonication (2×8 pulses). Soluble and particulate proteomic fractions were separated by ultracentrifugation (100,000 g, 45 min), and protein concentration was normalized to 1.7 mg/mL using a standard DC protein assay (Bio-Rad). The resulting proteomes were analyzed by competitive isotopic Tandem Orthogonal Proteolysis Activity-Based Protein Profiling (isoTOP-ABPP).
(§2) The heavy/light isoTOP-ABPP ratios (R values) for each unique peptide (DMSO/compound treated) were quantified with in-house CIMAGE software (Weerapana et al., 2010) using default parameters (3 MS1 acquisitions per peak and signal to noise threshold set to 2.5). Site-specific engagement of cysteine residues was assessed by blockade of IA-alkyne probe labeling. […] Ratios for unique peptide sequences were calculated for each experiment; overlapping peptides with the same modified cysteine (e.g., different charge states, elution times or tryptic termini) were grouped together and the median ratio was reported as the final ratio (R). Additionally, ratios for peptide sequences containing multiple cysteines were grouped together. When aggregating data across experimental replicates, the mean of each experimental median R was reported. The peptide ratios reported by CIMAGE were further filtered to ensure the removal or correction of low-quality ratios in each individual dataset. The quality filters applied were the following: removal of half-tryptic peptides, removal of peptides with more than one tryptic miscleaved, removal of peptides with R=20 and only a single MS2 event triggered during the elution of the parent ion, removal of non-unique peptides. Further filtering was then performed as described below for each experiment type.
(§3) Samples (500 μL, 1.7 mg/mL) were treated with iodoacetamide desthiobiotin (IA-DTB, 5 μL of 10 mM stock in DMSO, final concentration: 100 μM) for 1 h at ambient temperature. Ice-cold MeOH (500 μL) and CHCl3 (200 μL) were then added, the mixture was vortexed and centrifuged (10,000 g, 10 min, 4° C.) to afford a protein disc at the interface of CHCl3 and aqueous layers. Both layers were aspirated without perturbing the disk, which was re-suspended in cold methanol (500 μL) and CHCl3 (200 μL) by sonication. The proteins were pelleted (10,000 g, 10 min, 4° C.), and the resulting pellets were re-suspended in a buffer (90 μL) containing 9M urea, 10 mM DTT and 50 mM triethylammonium bicarbonate ( 1/20 dilution of 1.0 M stock solution, pH 8.5) by thorough pipetting up and down. The resulting mixture was heated at 65° C. for 20 min. Sample was cooled to room temp, iodoacetamide (10 μL, 500 mM solution in H2O) was added, and the samples were incubated at 37° C. for 30 min with shaking.
(§4) At individual TMT experiment level, the following filters were applied to remove low-quality peptides: removal of non-unique peptides; removal of half-tryptic peptides; removal of peptides with more than one internal miscleaved site; removal of peptides with low (<10,000) sum of reporter ion intensities for control channels, and peptides with high variation between the replicate control channels (coefficient of variance >0.5). R values (compound-treated vs. DMSO-treated) for each peptide entry were calculated using the reporter ion intensities of DMSO and compound treated TMT channels for each treatment group with a maximum ratio cap of 20. […]

[2] = target: T2, STAT3 Signal transducer and activator of transcription 3 C712, C718 (P40763) (Homo sapiens, UniProt P40763); test: Cysteine reactivity ABPP; assay type: binding
T2 construct: endogenous in cells; host or cells: primary human T cells
T2 sequence (P40763 whole entry, one chain of several): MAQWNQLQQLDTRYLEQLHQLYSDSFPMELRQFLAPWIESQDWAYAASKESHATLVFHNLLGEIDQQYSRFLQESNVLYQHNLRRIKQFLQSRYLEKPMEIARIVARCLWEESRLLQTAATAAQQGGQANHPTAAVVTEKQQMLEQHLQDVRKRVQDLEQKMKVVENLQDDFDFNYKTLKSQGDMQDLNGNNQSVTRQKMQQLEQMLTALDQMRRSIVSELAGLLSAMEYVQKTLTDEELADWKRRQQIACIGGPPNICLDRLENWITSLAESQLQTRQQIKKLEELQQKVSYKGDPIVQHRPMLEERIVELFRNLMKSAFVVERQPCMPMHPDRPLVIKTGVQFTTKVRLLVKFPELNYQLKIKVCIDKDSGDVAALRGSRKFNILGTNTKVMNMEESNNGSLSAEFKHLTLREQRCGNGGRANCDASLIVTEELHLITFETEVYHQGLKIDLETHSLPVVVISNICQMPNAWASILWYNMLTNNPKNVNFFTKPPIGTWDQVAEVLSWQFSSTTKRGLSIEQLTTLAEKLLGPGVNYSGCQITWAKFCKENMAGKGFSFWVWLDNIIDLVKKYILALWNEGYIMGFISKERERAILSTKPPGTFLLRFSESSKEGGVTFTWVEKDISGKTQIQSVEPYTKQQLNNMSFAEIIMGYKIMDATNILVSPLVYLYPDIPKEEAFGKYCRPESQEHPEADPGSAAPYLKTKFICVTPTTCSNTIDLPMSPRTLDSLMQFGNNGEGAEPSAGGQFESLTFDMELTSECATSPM
Protocol: as §1, §2, §3, §4

[3] = target: T3, CBLB E3 ubiquitin-protein ligase CBL-B C686 (Q13191) (Homo sapiens, UniProt Q13191); test: Cysteine reactivity ABPP; assay type: binding
T3 construct: endogenous in cells; host or cells: primary human T cells
T3 sequence (Q13191 whole entry): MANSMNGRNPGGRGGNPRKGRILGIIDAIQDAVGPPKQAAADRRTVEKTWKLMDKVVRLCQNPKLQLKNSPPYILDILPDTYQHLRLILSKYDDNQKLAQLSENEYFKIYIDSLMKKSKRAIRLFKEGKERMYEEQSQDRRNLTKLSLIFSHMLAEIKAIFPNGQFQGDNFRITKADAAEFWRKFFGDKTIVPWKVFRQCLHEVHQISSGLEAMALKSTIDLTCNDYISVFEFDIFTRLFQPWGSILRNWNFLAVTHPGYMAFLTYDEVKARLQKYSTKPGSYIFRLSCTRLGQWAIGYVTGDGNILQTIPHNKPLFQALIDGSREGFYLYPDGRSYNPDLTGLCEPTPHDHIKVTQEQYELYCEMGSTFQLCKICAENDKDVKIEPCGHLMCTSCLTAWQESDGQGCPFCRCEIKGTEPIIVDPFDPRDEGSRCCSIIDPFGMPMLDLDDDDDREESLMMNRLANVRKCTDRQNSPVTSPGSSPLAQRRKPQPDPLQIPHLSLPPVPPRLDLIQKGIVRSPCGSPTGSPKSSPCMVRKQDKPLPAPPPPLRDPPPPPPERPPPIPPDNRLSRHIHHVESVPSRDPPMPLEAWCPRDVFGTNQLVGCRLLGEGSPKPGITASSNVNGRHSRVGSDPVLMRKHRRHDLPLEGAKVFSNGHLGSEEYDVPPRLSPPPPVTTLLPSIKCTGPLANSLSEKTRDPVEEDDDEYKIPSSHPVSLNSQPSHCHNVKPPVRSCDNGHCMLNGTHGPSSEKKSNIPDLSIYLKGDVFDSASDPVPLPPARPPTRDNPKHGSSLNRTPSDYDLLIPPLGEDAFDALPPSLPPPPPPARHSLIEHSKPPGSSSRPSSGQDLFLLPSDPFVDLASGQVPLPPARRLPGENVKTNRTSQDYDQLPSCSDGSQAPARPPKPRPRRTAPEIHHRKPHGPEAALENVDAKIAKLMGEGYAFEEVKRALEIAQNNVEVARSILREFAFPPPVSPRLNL
Protocol: as §1, §2, §3, §4

[4] = target: T4, ACAT1 Acetyl-CoA acetyltransferase, mitochondrial C119 (P24752) (Homo sapiens, UniProt P24752); test: Cysteine reactivity ABPP; assay type: binding
T4 construct: endogenous in cells; host or cells: primary human T cells
T4 sequence (P24752 34-427): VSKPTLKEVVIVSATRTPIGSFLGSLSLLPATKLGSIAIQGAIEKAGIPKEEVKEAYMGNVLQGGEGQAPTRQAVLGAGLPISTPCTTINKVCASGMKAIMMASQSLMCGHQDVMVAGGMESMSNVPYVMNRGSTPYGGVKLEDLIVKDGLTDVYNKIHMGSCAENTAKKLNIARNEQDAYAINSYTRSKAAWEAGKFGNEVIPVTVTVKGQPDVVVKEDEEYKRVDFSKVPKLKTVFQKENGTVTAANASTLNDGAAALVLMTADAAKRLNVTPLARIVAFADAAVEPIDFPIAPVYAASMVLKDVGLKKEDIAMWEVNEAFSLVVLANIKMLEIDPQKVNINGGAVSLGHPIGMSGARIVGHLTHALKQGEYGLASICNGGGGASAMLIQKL
Protocol: as §1, §2, §3, §4

[5] = target: T5, JAK1 Tyrosine-protein kinase JAK1 C810, C817 (P23458) (Homo sapiens, UniProt P23458); test: Cysteine reactivity ABPP; assay type: binding
T5 construct: endogenous in cells; host or cells: primary human T cells
T5 sequence (P23458 whole entry): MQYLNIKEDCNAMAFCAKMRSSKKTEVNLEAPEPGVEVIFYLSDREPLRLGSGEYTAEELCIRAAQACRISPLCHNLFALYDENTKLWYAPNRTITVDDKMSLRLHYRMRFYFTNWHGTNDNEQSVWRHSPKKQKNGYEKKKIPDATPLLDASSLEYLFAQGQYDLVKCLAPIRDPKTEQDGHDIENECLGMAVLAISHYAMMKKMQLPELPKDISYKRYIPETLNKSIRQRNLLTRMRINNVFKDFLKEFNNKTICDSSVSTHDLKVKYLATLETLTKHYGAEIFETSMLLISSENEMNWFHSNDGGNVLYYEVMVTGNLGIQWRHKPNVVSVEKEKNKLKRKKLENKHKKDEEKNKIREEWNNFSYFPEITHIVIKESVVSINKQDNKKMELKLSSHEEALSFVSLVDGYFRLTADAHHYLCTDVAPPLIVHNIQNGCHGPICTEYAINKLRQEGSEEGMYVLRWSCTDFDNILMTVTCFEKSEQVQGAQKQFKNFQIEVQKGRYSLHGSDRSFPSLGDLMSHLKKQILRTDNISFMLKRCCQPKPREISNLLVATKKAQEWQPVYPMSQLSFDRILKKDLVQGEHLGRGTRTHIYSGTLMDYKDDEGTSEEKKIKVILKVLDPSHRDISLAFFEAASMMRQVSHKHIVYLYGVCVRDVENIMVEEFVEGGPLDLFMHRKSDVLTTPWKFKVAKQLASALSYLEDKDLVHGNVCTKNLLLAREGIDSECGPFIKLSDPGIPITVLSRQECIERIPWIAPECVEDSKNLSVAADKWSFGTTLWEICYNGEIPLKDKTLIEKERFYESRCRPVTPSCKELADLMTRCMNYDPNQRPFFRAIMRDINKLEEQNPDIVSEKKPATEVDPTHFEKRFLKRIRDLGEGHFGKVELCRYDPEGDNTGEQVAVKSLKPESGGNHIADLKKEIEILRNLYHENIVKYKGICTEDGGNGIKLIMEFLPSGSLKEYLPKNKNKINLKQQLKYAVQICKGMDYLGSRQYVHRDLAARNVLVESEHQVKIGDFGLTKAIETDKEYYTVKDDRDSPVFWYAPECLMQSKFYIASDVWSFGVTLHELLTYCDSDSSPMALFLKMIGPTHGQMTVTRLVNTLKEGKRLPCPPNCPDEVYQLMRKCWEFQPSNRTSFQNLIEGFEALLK
Protocol: as §1, §2, §3, §4

[6] = target: T6, STAT3 Signal transducer and activator of transcription 3 C259 (P40763) (Homo sapiens, UniProt P40763); test: Cysteine reactivity ABPP; assay type: binding
T6 construct: endogenous in cells; host or cells: primary human T cells
T6 sequence (P40763 whole entry, one chain of several): as the sequence (P40763 whole entry, one chain of several) above
Protocol: as §1, §2, §3, §4

[7] = target: T7, PTPN11 Tyrosine-protein phosphatase non-receptor type 11 C259 (Q06124) (Homo sapiens, UniProt Q06124); test: Cysteine reactivity ABPP; assay type: binding
T7 construct: endogenous in cells; host or cells: primary human T cells
T7 sequence (Q06124 1-593): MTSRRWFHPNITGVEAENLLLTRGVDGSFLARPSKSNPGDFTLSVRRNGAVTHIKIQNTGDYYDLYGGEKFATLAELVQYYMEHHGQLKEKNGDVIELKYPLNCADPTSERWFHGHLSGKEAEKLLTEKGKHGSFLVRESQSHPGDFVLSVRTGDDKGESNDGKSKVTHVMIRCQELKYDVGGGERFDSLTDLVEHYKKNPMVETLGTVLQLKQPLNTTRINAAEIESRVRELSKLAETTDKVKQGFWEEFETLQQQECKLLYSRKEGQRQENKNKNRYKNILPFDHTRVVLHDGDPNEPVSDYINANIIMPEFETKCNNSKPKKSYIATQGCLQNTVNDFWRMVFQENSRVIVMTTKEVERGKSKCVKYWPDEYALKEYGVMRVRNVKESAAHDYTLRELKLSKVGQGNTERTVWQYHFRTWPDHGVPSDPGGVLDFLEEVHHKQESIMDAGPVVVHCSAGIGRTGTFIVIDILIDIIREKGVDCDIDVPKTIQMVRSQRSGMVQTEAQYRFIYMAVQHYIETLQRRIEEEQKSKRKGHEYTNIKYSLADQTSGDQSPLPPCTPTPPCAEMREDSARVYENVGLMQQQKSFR
Protocol: as §1, §2, §3, §4

[8] = target: T8, TYK2 Non-receptor tyrosine-protein kinase TYK2 C838 (P29597) (Homo sapiens, UniProt P29597); test: Cysteine reactivity ABPP; assay type: binding
T8 construct: endogenous in cells; host or cells: primary human T cells
T8 sequence (P29597 whole entry): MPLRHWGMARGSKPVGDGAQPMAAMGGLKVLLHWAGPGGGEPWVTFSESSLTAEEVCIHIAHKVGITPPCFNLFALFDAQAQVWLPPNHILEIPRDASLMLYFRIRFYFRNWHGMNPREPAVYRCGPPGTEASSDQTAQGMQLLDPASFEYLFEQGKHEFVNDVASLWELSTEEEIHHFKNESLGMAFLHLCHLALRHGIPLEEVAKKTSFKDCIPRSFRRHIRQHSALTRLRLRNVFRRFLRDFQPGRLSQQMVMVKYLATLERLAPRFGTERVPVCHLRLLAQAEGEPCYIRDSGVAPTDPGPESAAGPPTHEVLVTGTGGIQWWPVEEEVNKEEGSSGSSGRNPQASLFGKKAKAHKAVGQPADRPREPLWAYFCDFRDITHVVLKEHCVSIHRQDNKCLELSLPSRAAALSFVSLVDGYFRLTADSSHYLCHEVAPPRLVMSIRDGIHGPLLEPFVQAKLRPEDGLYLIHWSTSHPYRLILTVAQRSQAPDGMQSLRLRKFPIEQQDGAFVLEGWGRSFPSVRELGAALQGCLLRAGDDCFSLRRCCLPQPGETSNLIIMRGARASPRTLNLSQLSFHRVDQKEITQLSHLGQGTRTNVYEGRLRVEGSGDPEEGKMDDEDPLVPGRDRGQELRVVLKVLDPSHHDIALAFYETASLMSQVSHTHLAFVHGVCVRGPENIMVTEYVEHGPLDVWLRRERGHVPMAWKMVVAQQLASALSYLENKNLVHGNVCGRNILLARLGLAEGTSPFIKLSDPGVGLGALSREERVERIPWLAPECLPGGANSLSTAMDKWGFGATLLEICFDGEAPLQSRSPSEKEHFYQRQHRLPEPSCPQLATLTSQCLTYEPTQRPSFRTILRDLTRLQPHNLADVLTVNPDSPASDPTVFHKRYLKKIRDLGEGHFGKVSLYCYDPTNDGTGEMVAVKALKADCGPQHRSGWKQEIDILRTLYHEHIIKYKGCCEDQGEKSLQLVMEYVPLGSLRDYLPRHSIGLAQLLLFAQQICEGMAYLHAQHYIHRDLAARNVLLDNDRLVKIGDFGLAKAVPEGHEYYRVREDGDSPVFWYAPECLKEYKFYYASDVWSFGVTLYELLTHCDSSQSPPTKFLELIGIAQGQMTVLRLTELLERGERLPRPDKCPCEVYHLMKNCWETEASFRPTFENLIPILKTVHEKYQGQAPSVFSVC
Protocol: as §1, §2, §3, §4

primary human T cells = test: Multidimensional screen for inhibition of T cell activation; assay type: cell-based
Protocol: Non-tissue culture treated 96-well plates are pre-coated with αCD3 (5 μg/mL) and αCD28 antibodies (2 μg/mL) in PBS (100 μL/well) and left at 4° C. overnight. Freshly isolated T cells are re-suspended in RPMI media supplemented with 10% FBS, L-glutamine (2 mM), penicillin (100 U/mL), and streptomycin (100 μg/mL) at 2×10^6 cells/mL. Compound stocks (200×) in DMSO are diluted to 2× stocks in the working RPMI media in another 96-well plate. The pre-coated 96-well treatment plates are washed with PBS (2×200μL), T cells (100 μL/well, 2×10^5 cells/well) are then added to the wells, followed by the addition of 2× compound stocks in RPMI media (100 μL). […]
The levels of secreted IL2, IFNγ and TNFα after incubating T cells in the presence of DMSO or electrophilic compounds under TCR-stimulating conditions are measured using DuoSet ELISA cytokine kits (R&D Systems) in clear microplates (R&D Systems) according to manufacturer's instructions and read using a CLARIOstar (BMG Labtech) plate reader (450 nm).
A multidimensional screen can be preformed of a focused library of structurally elaborated electrophilic small molecules to identify compounds that suppress T cell activation at low-μM concentrations without causing cytotoxicity. […] The viability of T cells can be monitored by flow cytometry using near-IR live-dead stain.

CASP2 (C366, C370) = target: T9, CASP2 (C366, C370) (Homo sapiens, UniProt P42575); test: isoTOP-ABPP of elaborated compound data (DMF datasets); assay type: binding; conditions: maximal ratio of 20 = ≥95% reduction in MS1 peak area
T9 construct: Soluble and particulate proteomic fractions were separated by ultracentrifugation; endogenous in cells; host or cells: primary human T cells
T9 sequence (P42575 1-452): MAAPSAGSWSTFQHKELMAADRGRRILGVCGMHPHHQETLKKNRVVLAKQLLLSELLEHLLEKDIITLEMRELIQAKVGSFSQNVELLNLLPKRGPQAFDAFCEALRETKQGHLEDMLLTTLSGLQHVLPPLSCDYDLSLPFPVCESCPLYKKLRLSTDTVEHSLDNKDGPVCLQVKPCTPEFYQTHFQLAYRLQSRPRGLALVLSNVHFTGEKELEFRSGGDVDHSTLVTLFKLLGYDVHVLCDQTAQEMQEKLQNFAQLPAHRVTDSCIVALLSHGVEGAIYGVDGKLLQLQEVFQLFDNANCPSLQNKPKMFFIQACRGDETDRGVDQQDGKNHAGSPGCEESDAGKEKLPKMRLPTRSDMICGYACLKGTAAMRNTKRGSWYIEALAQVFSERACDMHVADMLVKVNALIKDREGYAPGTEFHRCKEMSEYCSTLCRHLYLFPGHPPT
Protocol: as §1
(§5) The heavy/light isoTOP-ABPP ratios (R values) for each unique peptide (DMSO/compound treated) were quantified with in-house CIMAGE software (Weerapana et al., 2010) using default parameters (3 MS1 acquisitions per peak and signal to noise threshold set to 2.5). Site-specific engagement of cysteine residues was assessed by blockade of IA-alkyne probe labeling. […] Ratios for unique peptide sequences were calculated for each experiment; overlapping peptides with the same modified cysteine (e.g., different charge states, elution times or tryptic termini) were grouped together and the median ratio was reported as the final ratio (R). […]

BIRC2 (C45) = target: T10, BIRC2 (C45) (Homo sapiens, UniProt Q13490); test: as above; assay type: binding; conditions: maximal ratio of 20 = ≥95% reduction in MS1 peak area
T10 construct: endogenous in cells; host or cells: primary human T cells
Protocol: as §1, §5

T1 sequence (Q16875 whole entry, one chain of several): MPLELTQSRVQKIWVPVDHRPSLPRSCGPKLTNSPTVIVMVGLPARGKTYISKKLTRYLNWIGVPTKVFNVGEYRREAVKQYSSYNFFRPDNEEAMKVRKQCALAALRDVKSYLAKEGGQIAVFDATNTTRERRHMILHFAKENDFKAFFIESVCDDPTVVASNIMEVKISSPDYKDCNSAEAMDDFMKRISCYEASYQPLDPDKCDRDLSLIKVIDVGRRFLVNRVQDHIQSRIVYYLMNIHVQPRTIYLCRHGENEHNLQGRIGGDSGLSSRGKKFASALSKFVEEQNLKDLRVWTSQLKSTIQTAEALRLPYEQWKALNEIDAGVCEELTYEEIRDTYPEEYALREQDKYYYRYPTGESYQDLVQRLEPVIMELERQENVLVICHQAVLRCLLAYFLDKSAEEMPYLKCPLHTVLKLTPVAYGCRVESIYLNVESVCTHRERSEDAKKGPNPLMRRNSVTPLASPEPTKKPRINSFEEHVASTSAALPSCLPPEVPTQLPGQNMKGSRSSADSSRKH

Cysteine reactivity proteomic data ([1]; 100 μM)	Cysteine reactivity proteomic data ([1]; 500 μM)	Cysteine reactivity proteomic data ([2]; 100 μM)	Cysteine reactivity proteomic data ([2]; 500 μM)	Cysteine reactivity proteomic data ([3]; 100 μM)	Cysteine reactivity proteomic data ([3]; 500 μM)	Cysteine reactivity proteomic data ([4]; 100 μM)	Cysteine reactivity proteomic data ([4]; 500 μM)	Cysteine reactivity proteomic data ([5]; 100 μM)	Cysteine reactivity proteomic data ([5]; 500 μM)	Cysteine reactivity proteomic data ([6]; 100 μM)	Cysteine reactivity proteomic data ([6]; 500 μM)	Cysteine reactivity proteomic data ([7]; 100 μM)	Cysteine reactivity proteomic data ([7]; 500 μM)	Cysteine reactivity proteomic data ([8]; 100 μM)	Cysteine reactivity proteomic data ([8]; 500 μM)	Structure (SMILES)	suppress T cell activation (primary human T cells; anti-CD3/anti-CD28 activation, measured 24 h later by reductions in secreted IL-2, IFN-γ and CD69, CD25 expression) [%]	viability of T cells (primary human T cells; flow cytometry, near-IR live-dead stain) [%]	isoTOP-ABPP ratio R (DMSO/compound treated) (CASP2 (C366, C370))	isoTOP-ABPP ratio R (DMSO/compound treated) (BIRC2 (C45))
81.7564	89.0944	42.1791	80.6157	4.7619	84.7455	−14.9577	58.3081	94.3358	99.489	58.1986	57.1888	50.0993	72.8049	96.4386	98.2637	C=CC(=O)N(Cc1cccc(Cl)n1)c1ccc(C(=O)Nc2ccccc2)nc1 [Compound L4]	–	–	–	–
–	–	–	–	–	–	–	–	–	–	–	–	–	–	–	–	CN(C)C=O [DMF]	> 65	> 85	20	20
